The supplement of paper PMC13207355

Experiments:
Conditions in all cases: exposure time: 72 h
[1] = test system: E13 (patient-derived glioblastoma stem cells of classical subtype); assay: surviving fraction (nuclei count normalised to DMSO); higher = more cells surviving (less toxic)
[2] = test system: E21 (patient-derived glioblastoma stem cells of mesenchymal subtype); assay: as above
[3] = test system: E28 (patient-derived glioblastoma stem cells of classical subtype); assay: as above
[4] = test system: E31 (patient-derived glioblastoma stem cells of proneural subtype); assay: as above
[5] = test system: E34 (patient-derived glioblastoma stem cells of proneural subtype); assay: as above
[6] = test system: E57 (patient-derived glioblastoma stem cells of mesenchymal subtype); assay: as above
[7] = test system: FT3469 (normal neural stem cell line); assay: as above
[8] = test system: E13; assay: phenotypic distance (Euclidean, principal components) from DMSO controls (arbitrary units); higher = stronger morphological change
[9] = test system: E21; assay: as above
[10] = test system: E28; assay: as above
[11] = test system: E31; assay: as above
[12] = test system: E34; assay: as above
[13] = test system: E57; assay: as above
[14] = test system: FT3469; assay: as above
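For phenotypic distance (Euclidean, principal components) from DMSO controls in this document: cell Painting imaging in 384-well plates, CellProfiler features reduced to at least 20 principal components, Euclidean distance versus same-plate DMSO vehicle wells (0.1% v/v), median over six images per well.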
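For surviving fraction (nuclei count normalised to DMSO) in this document: nuclei counted by high-content imaging of Hoechst-stained cells in laminin-coated 384-well plates, relative to 0.1% DMSO vehicle wells, with staurosporine as cell-death control.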

C[C@@H](Oc1cc(-c2cnn(C3CCNCC3)c2)cnc1N)c1c(Cl)ccc(F)c1Cl [Crizotinib]
Conditions | phenotypic distance | surviving fraction
[1], 4.1 nM | – | 0.978
[1], 12.3 nM | – | 0.948
[1], 37 nM | – | 0.972
[1], 111.1 nM | – | 0.863
[1], 333.3 nM | – | 0.881
[1], 1000 nM | – | 0.849
[1], 3000 nM | – | 0.482
[2], 4.1 nM | – | 0.907
[2], 12.3 nM | – | 0.826
[2], 37 nM | – | 1.02
[2], 111.1 nM | – | 0.883
[2], 333.3 nM | – | 0.986
[2], 1000 nM | – | 0.78
[2], 3000 nM | – | 0.472
[3], 4.1 nM | – | 1.02
[3], 12.3 nM | – | 0.941
[3], 37 nM | – | 0.83
[3], 111.1 nM | – | 0.923
[3], 333.3 nM | – | 0.96
[3], 1000 nM | – | 0.837
[3], 3000 nM | – | 0.326
[4], 4.1 nM | – | 0.998
[4], 12.3 nM | – | 1.05
[4], 37 nM | – | 0.891
[4], 111.1 nM | – | 0.884
[4], 333.3 nM | – | 1.13
[4], 1000 nM | – | 0.96
[4], 3000 nM | – | 0.472
[5], 4.1 nM | – | 0.973
[5], 12.3 nM | – | 0.985
[5], 37 nM | – | 0.786
[5], 111.1 nM | – | 1.1
[5], 333.3 nM | – | 0.933
[5], 1000 nM | – | 0.88
[5], 3000 nM | – | 0.565
[6], 4.1 nM | – | 1.03
[6], 12.3 nM | – | 0.937
[6], 37 nM | – | 1.01
[6], 111.1 nM | – | 0.957
[6], 333.3 nM | – | 1.04
[6], 1000 nM | – | 0.857
[6], 3000 nM | – | 0.477
[7], 4.1 nM | – | 0.854
[7], 12.3 nM | – | 1.03
[7], 37 nM | – | 1.09
[7], 111.1 nM | – | 1.09
[7], 333.3 nM | – | 0.941
[7], 1000 nM | – | 0.891
[7], 3000 nM | – | 0.574
[8], 4.1 nM | 0.499 | –
[8], 12.3 nM | 0.452 | –
[8], 37 nM | 0.936 | –
[8], 111.1 nM | 0.626 | –
[8], 333.3 nM | 0.58 | –
[8], 1000 nM | 1.09 | –
[8], 3000 nM | 3.75 | –
[9], 4.1 nM | 0.599 | –
[9], 12.3 nM | 1.58 | –
[9], 37 nM | 0.706 | –
[9], 111.1 nM | 0.783 | –
[9], 333.3 nM | 0.751 | –
[9], 1000 nM | 1.37 | –
[9], 3000 nM | 3.3 | –
[10], 4.1 nM | 0.935 | –
[10], 12.3 nM | 0.741 | –
[10], 37 nM | 1.91 | –
[10], 111.1 nM | 0.725 | –
[10], 333.3 nM | 0.457 | –
[10], 1000 nM | 0.886 | –
[10], 3000 nM | 2.74 | –
[11], 4.1 nM | 0.339 | –
[11], 12.3 nM | 0.524 | –
[11], 37 nM | 0.734 | –
[11], 111.1 nM | 0.728 | –
[11], 333.3 nM | 0.762 | –
[11], 1000 nM | 1.01 | –
[11], 3000 nM | 3.13 | –
[12], 4.1 nM | 0.825 | –
[12], 12.3 nM | 0.797 | –
[12], 37 nM | 0.989 | –
[12], 111.1 nM | 0.934 | –
[12], 333.3 nM | 0.571 | –
[12], 1000 nM | 1.16 | –
[12], 3000 nM | 2.7 | –
[13], 4.1 nM | 0.221 | –
[13], 12.3 nM | 1.2 | –
[13], 37 nM | 0.43 | –
[13], 111.1 nM | 0.517 | –
[13], 333.3 nM | 0.355 | –
[13], 1000 nM | 0.883 | –
[13], 3000 nM | 4.09 | –
[14], 4.1 nM | 0.558 | –
[14], 12.3 nM | 0.592 | –
[14], 37 nM | 0.496 | –
[14], 111.1 nM | 0.573 | –
[14], 333.3 nM | 0.58 | –
[14], 1000 nM | 0.774 | –
[14], 3000 nM | 2.09 | –
